This test addresses T1, Syk tyrosine kinase (Homo sapiens, UniProt P43405).
T1 construct: purchased Carna Biosciences, Inc
Put plainly: Test for Syk tyrosine kinase inhibitory activity (ELISA). As to conditions: Syk tyrosine kinase (Carna Biosciences), 25 μM ATP in substrate solution, 30° C. 1 hour, n=2; read-out: Evaluation (IC50, concentration inhibiting the tyrosine kinase activity at 50%). The class given is biochemical. As for the experimental part: Test Example 1: Test for Syk Tyrosine Kinase Inhibitory Activity
1. Preparation of Test Substance
A test substance was prepared at 10 mM in dimethyl sulfoxide (DMSO), and further diluted with DMSO to concentrations of 1000, 300, 100, 30, 10, 3, 1, 0.3, 0.1, 0.03, and 0.01 μM. The resulting solutions were further diluted to 20-fold with an assay buffer, whereby test substance solutions were prepared. As a negative control, a solution obtained by diluting DMSO to 20-fold with an assay buffer was used. As the assay buffer, a buffer containing 15 mM Tris-HCl (pH 7.5), 0.01 (v/v) % Tween-20, and 1 mM dithiothreitol was used.
2. Measurement of Syk Tyrosine Kinase Inhibitory Activity
The activity was measured using the ELISA method. Each of the test substance solutions was added to a streptavidine-coated 96-well place (DELFIA Strip Plate 8×12 wells, PerkinElmer Co., Ltd,) at 10 μL per well (n=2), and a substrate solution (625 nM biotinylated peptide substrate, 25 μM ATP, 25 mM MgCl2, 15 mM Tris-HCl (pH 7.5), 0.01 (v/v) % Tween-20, 1 mM dithiothreitol) was added to the plate at 20 μL per well, and the resulting mixture was stirred. Finally, Syk tyrosine kinase (Carna Biosciences, Inc.) (previously diluted to 0.025 nM with the assay buffer) was added to the plate at 20 μL per well, and the resulting mixture was stirred. A reaction was allowed to proceed at 30° C. for 1 hour. After the plate was washed 4 times with a washing buffer (50 mM Tris-HCl (pH 7.5, 150 mM NaCl, 0.02 (v/v) % Tween-20), a blocking buffer (0.1% bovine serum albumin, 50 mM Tris-HCl (pH 7.5), 150 mM NaCl, 0.02 (v/v) % Tween-20) was added to the plate at 150 μL per well, and blocking was performed at 30° C. for 30 minutes. Then, the blocking buffer was removed, and a horseradish peroxidase-labeled anti-phosphorylated tyrosine antibody (BD Biosciences, Inc.) (previously diluted to 10000-fold with the blocking buffer) was added to the plate at 100 μL per well, and the plate was incubated at 30° C. for 30 minutes. After the plate was washed 4 times with the washing buffer, a 3,3′,5,5′-tetramethylbenzidine solution (Sigma-Aldrich Co., Ltd.) was added to the plate at 100 μL per well to develop the color for 10 minutes. The reaction was stopped by adding 0.1 M sulfuric acid at 100 μL per well. The absorbance at 450 nm was measured using a microplate reader (Multiskan F C, Thermo Fisher Scientific K,K.).
3. Analysis of Measurement Results
A non-linear regression analysis was performed for the measured absorbance using the SAS system (SAS institute. Inc.), and a concentration of each of the test substances: inhibiting the tyrosine kinase activity at 50% (IC50 ) was calculated. A case where IC50 is […] was evaluated as ***, a case where IC50 is 5 nM or more and less than 50 nM was evaluated as **, and a case where IC50 is 50 nM or more and less than 500 nM was evaluated as *, which are shown in the column of evaluation item.
For orientation: ELISA stands for enzyme-linked immunosorbent assay.

Structures can show the parent of a compound that is named as a salt.

Regarding `CC(C)NC(=O)N1CCN(c2ccc(-c3cc(C4CC4)cc(Nc4cc(C#N)ccn4)n3)cn2)CC1` [Example 44, 4-{6-[(4-cyanopyridin-2-yl)amino]-4-cyclopropyl-2,3′-bipyridin-6′-yl}-N-(propan-2-yl)piperazine-1-carboxamide hydrochloride], the IC50 was in the range of 0.05 to 0.5 µM.
The result for `N#Cc1ccnc(Nc2cc(C3CC3)cc(-c3ccc(N4CC[C@@H](NC(N)=O)C4)nc3)n2)c1` [Example 45, 1-[(3R)-1-{6-[(4-cyanopyridin-2-yl)amino]-4-cyclopropyl-2,3′-bipyridin-6′-yl}pyrrolidin-3-yl]urea hydrochloride] reads 0.05 to 0.5 µM.
Regarding `N#Cc1ccnc(Nc2cc(C3CC3)cc(-c3ccc(N4CCN(C(N)=S)CC4)nc3)n2)c1` [Example 46, 4-{6-[(4-cyanopyridin-2-yl)amino]-4-cyclopropyl-2,3′-bipyridin-6′-yl}piperazine-1-carbothioamide hydrochloride], the IC50 is 0.05 to 0.5 µM.
The same measure for `N#Cc1ccnc(Nc2cc(C3CC3)cc(-c3ccc(N4CCC[C@@H]4C(N)=O)nc3)n2)c1` [Example 47, (R)-1-{6-[(4-cyanopyridin-2-yl)amino]-4-cyclopropyl-2,3′-bipyridin-6′-yl}pyrrolidine-2-carboxamide hydrochloride]: 0.05 to 0.5 µM; for `N#Cc1ccnc(Nc2cc(C3CC3)cc(-c3ccc(N4CCC[C@H]4CO)nc3)n2)c1` [Example 48, 2-{(4-cyclopropyl-6′-[(2S)-2-(hydroxymethyl)pyrrolidin-1-yl]-2,3′-bipyridin-6-yl}amino)pyridine-4-carbonitrile hydrochloride]: 0.05 to 0.5 µM.
With `N#Cc1ccnc(Nc2cc(C3CC3)cc(-c3ccc(N4CC[C@@H](N)C4)nc3)n2)c1` [Example 49, 2-({6′-[(3R)-3-aminopyrrolidin-1-yl]-4-cyclopropyl-2,3′-bipyridin-6-yl}amino)pyridine-4-carbonitrile dihydrochioride], the IC50 lay within 0.005 to 0.05 µM.
For the molecule `CC(=O)N[C@@H]1CCN(c2ccc(-c3cc(C4CC4)cc(Nc4cc(C#N)ccn4)n3)cn2)C1` [Example 50, N-[(3R)-1-{6-[(4-cyanopyridin-2-yl)amino]-4-cyclopropyl-2,3′-bipyridin-6′-yl}pyrrolidin-3-yl]acetamide hydrochloride], the IC50 was in the range of 0.05 to 0.5 µM.
Take `N#Cc1ccnc(Nc2cc(C3CC3)cc(-c3ccc(N4CC[C@@H](F)C4)nc3)n2)c1` [Example 51, 2-({4-cyclopropyl-6′-[(3R)-3-fluoropyrrolidin-1-yl]-2,3′-bipyridin-6-yl}amino)pyridine-4-carbonitrile hydrochloride]: the IC50 lay within 0.05 to 0.5 µM.
Consider `CN(C)[C@@H]1CCN(c2ccc(-c3cc(C4CC4)cc(Nc4cc(C#N)ccn4)n3)cn2)C1` [Example 52, 2-({4-cyclopropyl-6′-[(3R)-3-(dimethylamino)pyrrolidin-1-yl]-2,3′-bipyridin-yl}amino)pyridine-4-carbonitrile hydrochloride], for which the IC50 was 0.05 to 0.5 µM.
In the case of `N#Cc1ccnc(Nc2cc(C3CC3)cc(-c3ccc(N4CCCC4=O)nc3)n2)c1` [Example 53, 2-{[4-cyclopropyl-6′-(2-oxopyrrolidin-1-yl)-2,3′-bipyridin-6-yl]amino}pyridine-4-carbonitrile hydrochloride], the IC50 was 0.05 to 0.5 µM.
`Cc1ccc(-c2cc(C3CC3)cc(Nc3cc(C#N)ccn3)n2)cn1` [Example 54, 2-[(4-cyclopropyl-6′-methyl-2,3′-bipyridin-6-yl)amino]pyridine-4-carbonitrile hydrochloride]: the IC50 was in the range of 0.05 to 0.5 µM.
With `N#Cc1ccnc(Nc2cc(C3CC3)cc(-c3ccc4cn[nH]c4c3)n2)c1` [Example 55, 2-{[4-cyclopropyl-6-(1H-indazol-6-yl)pyridin-2-yl]amino}pyridine-4-carbonitrile hydrochloride], the IC50 was 0.005 to 0.05 µM.
The same measure for `N#Cc1ccnc(Nc2cc(C3CC3)cc(-c3ccc4[nH]ncc4c3)n2)c1` [Example 56, 2-{[4-cyclopropyl-6-(1H-indazol-5-yl)pyridin-2-yl]amino}pyridine-4-carbonitrile hydrochloride]: 0.005 to 0.05 µM.
Take `N#Cc1ccnc(Nc2cc(C3CC3)cc(-c3ccc(N4CCN(C(N)=O)CC4)nc3)n2)c1` [Example 57, 4-{6-[(4-cyanopyridin-2-yl)amino]-4-cyclopropyl-2,3′-bipyridin-6′-yl}piperazine-1-carboxamide hydrochloride]: the IC50 was in the range of 0.005 to 0.05 µM.
The same measure for `CS(=O)(=O)N1CCN(c2ccc(-c3cc(C4CC4)cc(Nc4cc(C#N)ccn4)n3)cn2)CC1` [Example 58, 2-({4-cyclopropyl-6′-[4-(methanesulfonyl)piperazin-1-yl]-2,3′-bipyridin-6-yl}amino)pyridine-4-carbonitrile hydrochloride]: 0.005 to 0.05 µM.
For the molecule `CC(=O)N1CCN(c2ccc(-c3cc(C4CC4)cc(Nc4cc(C#N)ccn4)n3)cn2)CC1` [Example 59, 2-{[6′-(4-acetylpiperazin-1-yl)-4-cyclopropyl-2,3′-bipyridin-6-yl]amino}pyridine-4-carbonitrile hydrochloride], the IC50 fell in the range of 0.005 to 0.05 µM.
The result for `N#Cc1ccnc(Nc2cc(C3CC3)cc(-c3ccc(N4CCC(C(=O)O)CC4)nc3)n2)c1` [Example 60, 1-{6-[(4-cyanopyridin-2-yl)amino]-4-cyclopropyl-2,3′-bipyridin-6′-yl}piperidine-4-carboxylic acid hydrochloride] reads 0.005 to 0.05 µM; that for `N#Cc1ccnc(Nc2cc(C3CC3)cc(-c3ccc(N4CCC(C(N)=O)CC4)nc3)n2)c1` [Example 61, 1-{6-[(4-cyanopyridin-2-yl)amino]-4-cyclopropyl-2,3′-bipyridin-6′-yl}piperidine-4-carboxamide hydrochloride], 0.05 to 0.5 µM; that for `N#Cc1ccnc(Nc2cc(C3CC3)cc(-c3ccc(N4CCC(C(N)=O)(c5ccc(F)cc5)CC4)nc3)n2)c1` [Example 62, 1-{6-[(4-cyanopyridin-2-yl)amino]-4-cyclopropyl-2,3′-bipyridin-6′-yl}-4-(4-fluorophenyl)piperidine-4-carboxamide hydrochloride], 0.005 to 0.05 µM.
As for `CNC(=O)CN1CCN(c2ccc(-c3cc(C4CC4)cc(Nc4cc(C#N)ccn4)n3)cn2)CC1` [Example 63, 2-(4-{6-[(4-cyanopyridin-2-yl)amino]-4-cyclopropyl-2,3′-bipyridin-6′-yl}piperazin-1-yl)-N-methylacetamide hydrochloride], the IC50 lay in the range of 0.05 to 0.5 µM.
The same measure for `N#Cc1ccnc(Nc2cc(C3CC3)cc(-c3ccc(N4CCC(NC(N)=O)CC4)nc3)n2)c1` [Example 64, 1-(1-{6-[(4-cyanopyridin-2-yl)amino]-4-cyclopropyl-2,3′-bipyridin-6′-yl}piperidin-4-yl)urea hydrochloride]: 0.005 to 0.05 µM; for `N#Cc1ccnc(Nc2cc(C3CC3)cc(-c3ccc(NC4CCN(C(N)=O)CC4)nc3)n2)c1` [Example 65, 4-({6-[(4-cyanopyridin-2-yl)amino]-4-cyclopropyl-2,3′-bipyridin-6′-yl}amino)piperidine-1-carboxamide hydrochloride]: 0.005 to 0.05 µM.
The same measure for `N#Cc1ccnc(Nc2cc(C3CC3)cc(-c3ccc(N4CCNCC4=O)nc3)n2)c1` [Example 66, 2-{[4-cyclopropyl-6′-(2-oxopiperazin-1-yl)-2,3′-bipyridin-6-yl]amino}pyridine-4-carbonitrile hydrochloride]: 0.05 to 0.5 µM.

The record behind these values is US20130225548A1, “Pyridine Derivative and Medicinal Agent” (NIPPON SHINYAKU CO., LTD., priority 2010, published 2013).
